Data published in patent US20220387417A1, “Pharmaceutical Combination and Use Thereof” (CSTONE PHARMACEUTICALS (SUZHOU) CO., LTD., priority 2019, published 2022).
“And” between values parts separate entries of the source, which are not always exact repeats. Equal values may be shown once. Where a name gives a salt, the structure may show the parent alone.

What was measured:
[1] = tested on: subcutaneous MC38-hPD-L1 transplanted tumor; assay: Antibody 2E5 monotherapy or in combination with Lenvatinib mesylate on B-hPD-1 humanized mouse MC38-hPD-L1 colon cancer model: tumor volume, tumor weight, TGI, synergy score; assay type: in vivo
Experimental: (§1) Synergy score was calculated using the following formula described in Clarke R. Issues in experimental design and endpoint analysis in the study of experimental cytotoxic agents in vivo in breast cancer and other models[J]. Breast Cancer Research & Treatment, 1997, 46(2-3):255-278, which is incorporated by reference in its entirety:
(§2) Synergy score=((A/C)×(B/C))/(AB/C);
(§3) where A is RTV value of drug A; B is RTV value of drug B; C is RTV value of vehicle control; AB is RTV value of combination treatment with A and B respectively. • Synergy score>1 represents synergistic; • Synergy score=1 represents additive; • Synergy score<1 represents antagonistic.
(§4) where V0 and Vt are the average tumor volume at the start of treatment (day 0) and the average tumor volume on a certain time point (day t).
(§5) Mouse colon cancer cells MC38 were purchased from Shun Ran (Shanghai) Biotechnology Co., Ltd., and the cells were cultured in a 37° C., 5% CO2 incubator supplemented with Dulbecco's Modified Eagle's medium containing 10% inactivated fetal bovine serum. MC38 cells were genetically modified to overexpress human PD-L1 and knock out murine PD-L1, the modified cells were named as MC38-hPD-L1 cells.
(§6) MC38-hPD-L1 tumor cells were resuspended in 1×PBS to a concentration of 5×10^5 cells per 0.1 mL. Each of the B-hPD-1 humanized mice was subcutaneously inoculated at the right lateral thorax region with 0.1 mL of the cell suspension. When the average tumor volume reached about 77 mm^3, the mice with moderate tumor volume were selected and randomly divided into 6 groups according to tumor volume, with 10 mice in each group, and the treatment was initiated on the same day.
Tumor volume was measured 2-3 times a week in two dimensions using a caliper, and the volume was expressed in mm^3 using the formula: V=0.5 a×b^2 where a and b were the long and short diameters of the tumor, respectively.
(§7) At the termination of the experiment, the animals were photographed to record the tumor bearing state after euthanasia, and the tumors of the mice were weighed and photographed.
TGITV(%)=[1−(Ti−T0)/(Vi−V0)]×100%. […]
At the termination of the experiment, the animals were euthanized, the tumors were separated and weighed, and the difference of tumor weight between each group was calculated. Tumor weight inhibition (TGITW) was calculated by the formula: […]
(§8) The original data measured and observed must be recorded. The original data was analyzed and the results were expressed by mean and standard error (Mean±SEM). The data of body weight, tumor volume and tumor weight was statistically analyzed using independent-samples t-test. All data were analyzed using SPSS, P<0.05 is considered to be statistically significant.

[2] = tested on: subcutaneous MC38-hPD-L1 transplanted tumor; assay: Antibody 1.14.4 monotherapy or in combination with Lenvatinib mesylate on B-hPD-1 humanized mouse MC38-hPD-L1 colon cancer model: tumor volume, tumor weight, TGI, synergy score; assay type: in vivo
Experimental: as §5
(§9) MC38-hPD-L1 tumor cells were resuspended in 1×PBS to a concentration of 5×10^6 cells/mL. Each of the B-hPD-1 humanized mice was subcutaneously inoculated at the right lateral thorax region with 0.1 mL of the cell suspension, and a total of 85 mice were inoculated. On the 7th day after inoculation, when the average tumor volume reached about 103 mm^3, the mice with moderate tumor volume were selected and randomly divided into 8 groups according to tumor volume, with 7 mice in each group, and the treatment was initiated on the same day.
Tumor volume was measured three times a week in two dimensions using a caliper, and the volume was expressed in mm^3 using the formula: V=0.5 a×b^2 where a and b were the long and short diameters of the tumor, respectively.
as §7
TGITV(%)=[1−(Ti−T0)/(Vi−V0)]×100%.
Ti: tumor volume of the treatment group at day i following treatment; T0: tumor volume of the treatment group at day 0 following treatment; Vi: tumor volume of the control group at day i following treatment; V0: tumor volume of the control group at day 0 following treatment.
At the termination of the experiment, the animals were euthanized, the tumors were separated and weighed, and the difference of tumor weight between each group was calculated. Tumor weight inhibition (TGITW) was calculated by the formula:
TGITW (%)=(WC−WT)/[…]×100%; where We means tumor weight of control group, WT means tumor weight of treatment group.
(§10) The original data measured and observed must be recorded. The original data was analyzed and the results were expressed by mean and standard error (Mean±SEM). The data of body weight, tumor volume and tumor weight was statistically analyzed using independent-samples t-test. All data were analyzed using SPSS, P<0.05 is considered to be statistically significant. The results of the analysis were considered both statistical significance and biological significance.
as §1, §2, §3, §4

[3] = Body weight of B-hPD-1 mice bearing MC38-hPD-L1 tumors, Embodiment 1 (antibody 1.14.4 / Lenvatinib mesylate); assay type: in vivo, Mus musculus
Experimental: as §9
(§11) Animals were weighed 2-3 times a week before tumor inoculation, during animal grouping and the treatment, and before the euthanasia.
as §10

[4] = Body weight of B-hPD-1 humanized mice bearing MC38-hPD-L1 tumors, Embodiment 2 (antibody 2E5 / Lenvatinib mesylate); assay type: in vivo, Mus musculus
Experimental: as §6, §11, §8

[5] = 17th day after the start of treatment, Antibody 2E5 1 mg/kg i.p., Lenvatinib mesylate 1 mg/kg p.o. QD (G2, G4, G5)

## COc1cc2nccc(Oc3ccc(NC(=O)NC4CC4)c(Cl)c3)c2cc1C(N)=O [Lenvatinib mesylate, reference compound]
[1]; [5]
  Tumor volume (mm^3)/Mean ± SEM Day 17: 891 ± 149 mm^3
[1]; Day 17, Antibody 2E5 1 mg/kg, Lenvatinib mesylate 1 mg/kg (G2, G4, G5)
  Tumor weight (g) Mean ± SEM: 0.767 ± 0.103 g
[1]; by tumor volume, Day 17, vs hIgG4 control, Antibody 2E5 1 mg/kg, Lenvatinib mesylate 1 mg/kg (G2, G4, G5)
  Tumor growth inhibition (%): 68.2%
[1]; tumor weight analysis (Table 21), Day 17, vs IgG4 control, Antibody 2E5 1 mg/kg, Lenvatinib mesylate 1 mg/kg (G2, G4, G5)
  Tumor growth inhibition (%): 63.2%
[2]; 16th day after the start of treatment, antibody 1.14.4 3 mg/kg Q2D i.p., Lenvatinib mesylate 1 mg/kg QD p.o.
  Tumor volume (mm^3)/Mean ± SEM Day 16: 1333 ± 261 mm^3
[2]; Day 0, Antibody 1.14.4 3 mg/kg, Lenvatinib mesylate 1 mg/kg, Table 11
  Tumor volume (mm^3)/Mean ± SEM Day 0: 103 ± 8 mm^3
[2]; Day 0 = day of the start of treatment, antibody 1.14.4 3 mg/kg, Lenvatinib mesylate 1 mg/kg, Table 10
  Tumor volume (mm^3)/Mean ± SEM Day 0: 103 ± 8 mm^3
[2]; Day 20, Antibody 1.14.4 3 mg/kg Q2D i.p., Lenvatinib mesylate 1 mg/kg QD p.o.
  Tumor volume (mm^3)/Mean ± SEM Day 20: 1726 ± 374 mm^3
[2]; Day 20, antibody 1.14.4 3 mg/kg, Lenvatinib mesylate 1 mg/kg, Table 13
  Tumor weight (g) Mean ± SEM: 1.244 ± 0.292 g
[2]; group mean (7 mice), Day 20, Antibody 1.14.4 3 mg/kg, Lenvatinib mesylate 1 mg/kg
  Tumor weight (g), group Mean: 1.244 g
[2]; individual mouse, 20th day after the start of treatment, Antibody 1.14.4 3 mg/kg Q2D i.p., Lenvatinib mesylate 1 mg/kg QD p.o.
  Tumor weight (g), individual animal: 1.039 g and 2.048 g and 2.485 g and 0.652 g and 0.408 g and 1.362 g and 0.715 g
[2]; tumor growth inhibition by tumor volume, Day 16, vs hIgG4 control, antibody 1.14.4 3 mg/kg, Lenvatinib mesylate 1 mg/kg
  TGITV (%): 38.8%
[2]; tumor weight inhibition vs hIgG4 control, Day 20, Antibody 1.14.4 3 mg/kg, Lenvatinib mesylate 1 mg/kg
  TGITW: 21.3%
[3]; 16th day after the start of treatment, Antibody 1.14.4 3 mg/kg, Lenvatinib mesylate 1 mg/kg
  Weight (g)/Mean ± SEM Day 16: 22.5 ± 0.2 g
[3]; Day 0 = day of the start of treatment, Antibody 1.14.4 3 mg/kg, Lenvatinib mesylate 1 mg/kg
  Weight (g)/Mean ± SEM Day 0: 19.9 ± 0.3 g
[3]; Day 16 vs Day 0, Antibody 1.14.4 3 mg/kg, Lenvatinib mesylate 1 mg/kg
  Weight (g) Changes: +2.6 g
[3]; group mean (7 mice), day 0, Antibody 1.14.4 3 mg/kg Q2D i.p., Lenvatinib mesylate 1 mg/kg QD p.o.
  Days after the start of treatment/weight (g), group Mean, day 0: 19.9 g
[3]; group mean (7 mice), day 3, Antibody 1.14.4 3 mg/kg Q2D i.p., Lenvatinib mesylate 1 mg/kg QD p.o.
  Days after the start of treatment/weight (g), group Mean, day 3: 19.5 g
[3]; group mean (7 mice), day 6, Antibody 1.14.4 3 mg/kg Q2D i.p., Lenvatinib mesylate 1 mg/kg QD p.o.
  Days after the start of treatment/weight (g), group Mean, day 6: 20.3 g
[3]; group mean (7 mice), day 8, Antibody 1.14.4 3 mg/kg Q2D i.p., Lenvatinib mesylate 1 mg/kg QD p.o.
  Days after the start of treatment/weight (g), group Mean, day 8: 20.5 g
[3]; group mean (7 mice), day 10, Antibody 1.14.4 3 mg/kg Q2D i.p., Lenvatinib mesylate 1 mg/kg QD p.o.
  Days after the start of treatment/weight (g), group Mean, day 10: 20.9 g
[3]; group mean (7 mice), day 12, Antibody 1.14.4 3 mg/kg Q2D i.p., Lenvatinib mesylate 1 mg/kg QD p.o.
  Days after the start of treatment/weight (g), group Mean, day 12: 21.2 g
[3]; group mean (7 mice), day 14, Antibody 1.14.4 3 mg/kg Q2D i.p., Lenvatinib mesylate 1 mg/kg QD p.o.
  Days after the start of treatment/weight (g), group Mean, day 14: 22.3 g
[3]; group mean (7 mice), day 16, Antibody 1.14.4 3 mg/kg Q2D i.p., Lenvatinib mesylate 1 mg/kg QD p.o.
  Days after the start of treatment/weight (g), group Mean, day 16: 22.5 g
[3]; group mean (7 mice), day 19, Antibody 1.14.4 3 mg/kg Q2D i.p., Lenvatinib mesylate 1 mg/kg QD p.o.
  Days after the start of treatment/weight (g), group Mean, day 19: 21.9 g
[3]; group mean (7 mice), day 20, Antibody 1.14.4 3 mg/kg Q2D i.p., Lenvatinib mesylate 1 mg/kg QD p.o.
  Days after the start of treatment/weight (g), group Mean, day 20: 22.7 g
[3]; individual mouse, day 0, Antibody 1.14.4 3 mg/kg Q2D i.p., Lenvatinib mesylate 1 mg/kg QD p.o.
  Days after the start of treatment/weight (g), individual animal, day 0: 18.6 g and 19.5 g and 19.4 g and 20.0 g and 20.2 g and 20.8 g (2×)
[3]; individual mouse, day 3, Antibody 1.14.4 3 mg/kg Q2D i.p., Lenvatinib mesylate 1 mg/kg QD p.o.
  Days after the start of treatment/weight (g), individual animal, day 3: 18.8 g and 19.2 g and 18.9 g and 19.7 g and 19.3 g and 20.3 g and 20.2 g
[3]; individual mouse, day 6, Antibody 1.14.4 3 mg/kg Q2D i.p., Lenvatinib mesylate 1 mg/kg QD p.o.
  Days after the start of treatment/weight (g), individual animal, day 6: 19.4 g and 20.1 g and 19.8 g and 20.6 g and 20.3 g and 21.2 g and 20.8 g
[3]; individual mouse, day 8, Antibody 1.14.4 3 mg/kg Q2D i.p., Lenvatinib mesylate 1 mg/kg QD p.o.
  Days after the start of treatment/weight (g), individual animal, day 8: 19.5 g and 20.6 g and 20.4 g and 20.7 g and 20.3 g and 21.0 g (2×)
[3]; individual mouse, day 10, Antibody 1.14.4 3 mg/kg Q2D i.p., Lenvatinib mesylate 1 mg/kg QD p.o.
  Days after the start of treatment/weight (g), individual animal, day 10: 20.2 g and 21.1 g and 20.1 g and 21.5 g and 20.4 g and 21.7 g and 21.4 g
[3]; individual mouse, day 12, Antibody 1.14.4 3 mg/kg Q2D i.p., Lenvatinib mesylate 1 mg/kg QD p.o.
  Days after the start of treatment/weight (g), individual animal, day 12: 20.1 g and 21.1 g (2×) and 21.4 g and 20.7 g and 22.2 g and 21.6 g
[3]; individual mouse, day 14, Antibody 1.14.4 3 mg/kg Q2D i.p., Lenvatinib mesylate 1 mg/kg QD p.o.
  Days after the start of treatment/weight (g), individual animal, day 14: 20.9 g and 22.9 g and 22.0 g (2×) and 22.2 g and 23.0 g (2×)
[3]; individual mouse, day 16, Antibody 1.14.4 3 mg/kg Q2D i.p., Lenvatinib mesylate 1 mg/kg QD p.o.
  Days after the start of treatment/weight (g), individual animal, day 16: 21.6 g and 22.8 g (2×) and 22.6 g and 22.5 g and 21.9 g and 23.0 g
[3]; individual mouse, day 19, Antibody 1.14.4 3 mg/kg Q2D i.p., Lenvatinib mesylate 1 mg/kg QD p.o.
  Days after the start of treatment/weight (g), individual animal, day 19: 21.2 g and 23.0 g (2×) and 21.9 g and 21.4 g and 22.6 g and 20.3 g
[3]; individual mouse, day 20, Antibody 1.14.4 3 mg/kg Q2D i.p., Lenvatinib mesylate 1 mg/kg QD p.o.
  Days after the start of treatment/weight (g), individual animal, day 20: 21.5 g and 23.2 g (3×) and 22.6 g and 22.1 g and 22.9 g
[4]; [5]
  Weight (g)/Mean ± SEM Day 17: 28.0 ± 0.8 g
[4]; Day 0, Antibody 2E5 1 mg/kg i.p., Lenvatinib mesylate 1 mg/kg p.o. QD (G2, G4, G5)
  Weight (g)/Mean ± SEM Day 0: 24.9 ± 0.8 g
[4]; Day 17 vs Day 0, Antibody 2E5 1 mg/kg, Lenvatinib mesylate 1 mg/kg (G2, G4, G5)
  Weight (g) Changes: +3.1 g
